Experimental data taken from the NIST ThermoML archive (doi:10.1016/j.tca.2014.10.019).
Numbers after ± are expanded uncertainties.

Test: mn = molality of the nth substance listed, in mol/kg
Details: 100 kPa, Liquid; for speed of sound: Frequency=3 MHz, Sing-around technique in a fixed-path interferometer; for mass density: Vibrating tube method

| Structure (SMILES) | speed of sound (293.15 K, m1 = 0.1) | speed of sound (293.15 K, m1 = 0.2) | speed of sound (293.15 K, m1 = 0.3) | mass density (293.15 K, m1 = 0.1) | mass density (293.15 K, m1 = 0.2) | mass density (293.15 K, m1 = 0.3) | speed of sound (298.15 K, m1 = 0.1) | speed of sound (298.15 K, m1 = 0.2) | speed of sound (298.15 K, m1 = 0.3) | mass density (298.15 K, m1 = 0.1) | mass density (298.15 K, m1 = 0.2) | mass density (298.15 K, m1 = 0.3) | speed of sound (303.15 K, m1 = 0.1) | speed of sound (303.15 K, m1 = 0.2) | mass density (303.15 K, m1 = 0.1) | mass density (303.15 K, m1 = 0.2) | mass density (303.15 K, m1 = 0.3) | speed of sound (308.15 K, m1 = 0.1) | speed of sound (308.15 K, m1 = 0.2) | speed of sound (308.15 K, m1 = 0.3) | further results |
| --- | --- | --- | --- | --- | --- | --- | --- | --- | --- | --- | --- | --- | --- | --- | --- | --- | --- | --- | --- | --- | --- |
| [Cl-].[K+] [potassium chloride] + O | 1488.5 ± 1.4 m/s | 1493.8 ± 1.4 m/s | 1497.6 ± 1.4 m/s | 1002.99 ± 0.16 kg/m3 | 1007.72 ± 0.16 kg/m3 | 1013.42 ± 0.17 kg/m3 | 1502.5 ± 1.4 m/s | 1507.3 ± 1.4 m/s | 1511 ± 1.4 m/s | 1001.79 ± 0.16 kg/m3 | 1006.48 ± 0.16 kg/m3 | 1012.13 ± 0.17 kg/m3 | 1514.6 ± 1.4 m/s | 1519.3 ± 1.4 m/s | 1000.36 ± 0.16 kg/m3 | 1005.02 ± 0.16 kg/m3 | 1010.63 ± 0.16 kg/m3 | 1525.1 ± 1.4 m/s | 1529.6 ± 1.4 m/s | 1532.9 ± 1.4 m/s | speed of sound (303.15 K, m1 = 0.3): 1522.8 ± 1.4 m/s; mass density (308.15 K, m1 = 0.1): 998.71 ± 0.16 kg/m3; mass density (308.15 K, m1 = 0.2): 1003.35 ± 0.16 kg/m3; mass density (308.15 K, m1 = 0.3): 1008.94 ± 0.16 kg/m3; speed of sound (313.15 K, m1 = 0.1): 1534 ± 1.4 m/s; speed of sound (313.15 K, m1 = 0.2): 1538.4 ± 1.4 m/s; speed of sound (313.15 K, m1 = 0.3): 1541.6 ± 1.4 m/s; mass density (313.15 K, m1 = 0.1): 996.88 ± 0.16 kg/m3; mass density (313.15 K, m1 = 0.2): 1001.49 ± 0.16 kg/m3; mass density (313.15 K, m1 = 0.3): 1007.02 ± 0.16 kg/m3 |
| [Cl-].[Na+] [sodium chloride] + O | 1489.3 ± 1.4 m/s | 1496.2 ± 1.4 m/s | 1502.3 ± 1.4 m/s | 1002.42 ± 0.16 kg/m3 | 1006.67 ± 0.16 kg/m3 | 1010.64 ± 0.16 kg/m3 | 1503.3 ± 1.4 m/s | 1509.9 ± 1.4 m/s | 1515.8 ± 1.4 m/s | 1001.21 ± 0.16 kg/m3 | 1005.41 ± 0.16 kg/m3 | 1009.34 ± 0.16 kg/m3 | 1515.5 ± 1.4 m/s | 1521.8 ± 1.4 m/s | 999.77 ± 0.16 kg/m3 | 1003.93 ± 0.16 kg/m3 | 1007.81 ± 0.16 kg/m3 | 1525.9 ± 1.4 m/s | 1532 ± 1.4 m/s | 1537.6 ± 1.4 m/s | mass density (308.15 K, m1 = 0.1): 998.12 ± 0.16 kg/m3; mass density (308.15 K, m1 = 0.2): 1002.25 ± 0.16 kg/m3; mass density (308.15 K, m1 = 0.3): 1006.1 ± 0.16 kg/m3; speed of sound (313.15 K, m1 = 0.1): 1534.8 ± 1.4 m/s; speed of sound (313.15 K, m1 = 0.2): 1540.7 ± 1.4 m/s; speed of sound (313.15 K, m1 = 0.3): 1546.2 ± 1.4 m/s; mass density (313.15 K, m1 = 0.1): 996.28 ± 0.16 kg/m3; mass density (313.15 K, m1 = 0.2): 1000.38 ± 0.16 kg/m3; mass density (313.15 K, m1 = 0.3): 1004.2 ± 0.16 kg/m3 |
